{"source": "patent US6015809A", "about": "(priority 1999, dated 2000)", "assay_type_in_all_cases": "cell-based", "key": {"[1]": {"tested_on": "Candida parapsilosis", "experiment": "Antifungal activity, MIC microdilution", "conditions": "RPMI 1640, 35° C., 24-48 hours", "method": "(§1) Antifungal activity for the compounds of this invention was established by evaluating a representative compound of this invention (Compound I) against several strains of fungi. Briefly the following procedure was used to evaluate such activity. A 96 U-bottom microtiter plate was filled (50 μl/well) with RPMI 1640. The compounds to be evaluated were placed in appropriate wells, and serial diluted in successive wells to provide 11 dilutions. The concentrations ranged from 64 through 0.06 μg/ml. An adjusted inoculum of fungi (50 μl) was added to each well and the plates were incubated at 35° C. for 24-48 hours."}, "[2]": {"tested_on": "Filobasidiella neoformans", "experiment": "Antifungal activity, MIC microdilution", "conditions": "strain ATCC 7472; RPMI 1640, 35° C., 24-48 hours", "method": "as §1"}, "[3]": {"tested_on": "Candida krussii", "experiment": "Antifungal activity, MIC microdilution", "conditions": "strain 94-2; RPMI 1640, 35° C., 24-48 hours", "method": "as §1"}, "[4]": {"tested_on": "Aspergillus fumigatus", "experiment": "Antifungal activity, MIC microdilution", "conditions": "strain ATCC 26933; RPMI 1640, 35° C., 24-48 hours", "method": "as §1"}, "[5]": {"tested_on": "Candida tropicalis", "experiment": "Antifungal activity, MIC microdilution", "conditions": "RPMI 1640, 35° C., 24-48 hours", "method": "as §1"}, "[6]": {"tested_on": "Candida glabrata", "experiment": "Antifungal activity, MIC microdilution", "conditions": "strain ATCC 90030; RPMI 1640, 35° C., 24-48 hours", "method": "as §1"}, "[7]": {"tested_on": "Cryptococcus neoformans", "experiment": "Antifungal activity, MIC microdilution", "conditions": "strain ATCC 90112; RPMI 1640, 35° C., 24-48 hours", "method": "as §1"}, "[8]": {"tested_on": "MDA-MB-435 (breast) tumor cells", "experiment": "Antineoplastic activity in vitro, tumor cell growth (sulforhrodamine B)", "conditions": "MDA-MB-435, 48 hours", "from_the_text": "(§2) Antineoplastic activity for the compounds of this invention was established by evaluating the antineoplastic activity of a representative compound of this invention (Compound I) against six tumor cell lines in vitro. Briefly, tumor cells from six cell lines were placed in wells of a 96 well microtiter plate. The following tumor cell lines were used: A2780S (ovarian), A2780DDP (ovarian--resistant to cis-platin), A431 (vulva epidermoid origin), SW620 (colon), SKBR3 (breast), and MDA-MB-435 (breast). The tumors cells were grown in the presence of serial dilutions of the compound to be evaluated for 48 hours, and cell growth determined using a colorimetric procedure (sulforhrodamine B). The inhibition of growth was calculated compared to the number of cells at the time of test compound addition. Results are expressed as an IC50 (μg/ml). […] In particular, the compounds of this invention are useful against solid tumors, including sarcomas and carcinomas; and more particularly against astrocytomas, prostate cancer, breast cancer, colon cancer, small cell lung cancer, and ovarian cancer; and adult T-cell leukemia/lymphoma."}, "[9]": {"tested_on": "SW620 (colon) tumor cells", "experiment": "Antineoplastic activity in vitro, tumor cell growth (sulforhrodamine B)", "conditions": "SW620, 48 hours", "from_the_text": "as §2"}, "[10]": {"tested_on": "SKBR3 (breast) tumor cells", "experiment": "Antineoplastic activity in vitro, tumor cell growth (sulforhrodamine B)", "conditions": "SKBR3, 48 hours", "from_the_text": "as §2"}, "[11]": {"tested_on": "A431 (vulva epidermoid origin) tumor cells", "experiment": "Antineoplastic activity in vitro, tumor cell growth (sulforhrodamine B)", "conditions": "A431, 48 hours", "from_the_text": "as §2"}, "[12]": {"tested_on": "A2780S (ovarian) tumor cells", "experiment": "Antineoplastic activity in vitro, tumor cell growth (sulforhrodamine B)", "conditions": "48 hours", "from_the_text": "as §2"}, "[13]": {"tested_on": "A2780DDP (ovarian--resistant to cis-platin) tumor cells", "experiment": "Antineoplastic activity in vitro, tumor cell growth (sulforhrodamine B)", "conditions": "48 hours", "from_the_text": "as §2"}, "[14]": {"tested_on": "Candida albicans", "experiment": "Antifungal activity, MIC microdilution", "conditions": "RPMI 1640, 35° C., 24-48 hours", "method": "(§3) Briefly the following procedure was used to evaluate such activity. A 96 U-bottom microtiter plate was filled (50 μl/well) with RPMI 1640. The compounds to be evaluated were placed in appropriate wells, and serial diluted in successive wells to provide 11 dilutions. The concentrations ranged from 64 through 0.06 μg/ml. An adjusted inoculum of fungi (50 μl) was added to each well and the plates were incubated at 35° C. for 24-48 hours."}, "[15]": {"tested_on": "Candida lusitaniae", "experiment": "Antifungal activity, MIC microdilution", "conditions": "strain 94-3; RPMI 1640, 35° C., 24-48 hours", "method": "as §3"}, "[16]": {"tested_on": "Candida zeylanoided", "experiment": "Antifungal activity, MIC microdilution", "conditions": "strain 94-15; RPMI 1640, 35° C., 24-48 hours", "method": "as §3"}, "[17]": {"tested_on": "Candida pseudotropicalis", "experiment": "Antifungal activity, MIC microdilution", "conditions": "strain ATCC 28838; RPMI 1640, 35° C., 24-48 hours", "method": "as §3"}, "[18]": {"tested_on": "Aspergillus flavus", "experiment": "Antifungal activity, MIC microdilution", "conditions": "strain ATCC 12963; RPMI 1640, 35° C., 24-48 hours", "method": "as §3"}, "[19]": {"tested_on": "Aspergillus niger", "experiment": "Antifungal activity, MIC microdilution", "conditions": "strain S-430; RPMI 1640, 35° C., 24-48 hours", "method": "as §3"}, "[20]": {"tested_on": "Candida rugosa", "experiment": "Antifungal activity, MIC microdilution", "conditions": "strain 94-10; RPMI 1640, 35° C., 24-48 hours", "method": "as §3"}, "[21]": {"tested_on": "Saccharomyces cerevisiae", "experiment": "Antifungal activity, MIC microdilution", "conditions": "strain ATCC 2601; RPMI 1640, 35° C., 24-48 hours", "method": "as §3"}}}
{"smiles": "CO[C@H]1C[C@@H]2CC[C@@H](C)[C@@](O)(O2)[C@]2(O)C(=O)N3[C@@H](CCC[C@@H]32)C(=O)O[C@H]([C@H](C)C[C@@H]2CC[C@@H](O)[C@H](OC)C2)CC(=O)[C@H](C)/C=C(\\C)[C@@H](O)[C@@H](OC)C(=O)[C@H](C)C[C@H](C)/C=C/C=C/C=C/1C", "note": "[Compound I, (1S,2R,3R,6S,8S,9E,11E,13E,15S,17R,19R,20R,21E,23R,26S,29S,33R)-1,2,30-Trihydroxy-26-[(1R)-2-[(1S,3R,4R)4-hydroxy-3-methoxycyclohexyl]-1-methylethyl]-8,19-dimethoxy-3,9,15,17,21,23-hexamethyl-27,36-dioxa-35-azatetracyclo[27.4.2.1.[2,6].0[33,35]]hexatriaconta-9,11,13,21-tetraene-18,24,28,34-tetrone]", "values": [{"measurement": "MIC", "setting": "[1]; strain 94-8", "value": 8, "unit": "µg/mL"}, {"measurement": "MIC", "setting": "[1]; strain 94-9", "value": 8, "unit": "µg/mL"}, {"measurement": "MIC", "setting": "[1]; strain ATCC 90018", "value": 8, "unit": "µg/mL"}, {"measurement": "MIC", "setting": "[2]", "value": "≥ 64", "unit": "µg/mL"}, {"measurement": "MIC", "setting": "[3]", "value": "≥ 64", "unit": "µg/mL"}, {"measurement": "MIC", "setting": "[4]", "value": "≥ 64", "unit": "µg/mL"}, {"measurement": "MIC", "setting": "[5]; strain 94-13", "value": 16, "unit": "µg/mL"}, {"measurement": "MIC", "setting": "[5]; strain 94-14", "value": 8, "unit": "µg/mL"}, {"measurement": "MIC", "setting": "[6]", "value": 8, "unit": "µg/mL"}, {"measurement": "MIC", "setting": "[7]", "value": 8, "unit": "µg/mL"}, {"measurement": "IC50 (inhibition of growth)", "setting": "[8]", "value": 27.28, "unit": "µg/mL"}, {"measurement": "IC50 (inhibition of growth)", "setting": "[9]", "value": 24.84, "unit": "µg/mL"}, {"measurement": "IC50 (inhibition of growth)", "setting": "[10]", "value": 7.029, "unit": "µg/mL"}, {"measurement": "IC50 (inhibition of growth)", "setting": "[11]", "value": 20.46, "unit": "µg/mL"}, {"measurement": "IC50 (inhibition of growth)", "setting": "[12]", "value": 8.756, "unit": "µg/mL"}, {"measurement": "IC50 (inhibition of growth)", "setting": "[13]", "value": 6.51, "unit": "µg/mL"}, {"measurement": "MIC", "setting": "[14]; strain 94-1", "value": 16, "unit": "µg/mL"}, {"measurement": "MIC", "setting": "[14]; strain 1063", "value": 16, "unit": "µg/mL"}, {"measurement": "MIC", "setting": "[14]; strain 1117", "value": 32, "unit": "µg/mL"}, {"measurement": "MIC", "setting": "[14]; strain ATCC 90028", "value": 16, "unit": "µg/mL"}, {"measurement": "MIC", "setting": "[14]; strain C-83", "value": "≥ 64", "unit": "µg/mL"}, {"measurement": "MIC", "setting": "[15]", "value": 4, "unit": "µg/mL"}, {"measurement": "MIC", "setting": "[16]", "value": 8, "unit": "µg/mL"}, {"measurement": "MIC", "setting": "[17]", "value": 4, "unit": "µg/mL"}, {"measurement": "MIC", "setting": "[18]", "value": "≥ 64", "unit": "µg/mL"}, {"measurement": "MIC", "setting": "[19]", "value": "≥ 64", "unit": "µg/mL"}, {"measurement": "MIC", "setting": "[20]", "value": 16, "unit": "µg/mL"}, {"measurement": "MIC", "setting": "[21]", "value": 8, "unit": "µg/mL"}]}
